Laboratory results from ChEMBL document CHEMBL3352377, “Discovery of selective and orally bioavailable protein kinase Cθ (PKCθ) inhibitors from a fragment hit” (J Med Chem, 2015).

Key:
[1] = molecular target: Protein kinase C theta type (Homo sapiens, UniProt Q04759)
Description: Inhibition of human recombinant PKCtheta expressed in Sf21 cells using Bio-cdc peptide substrate and ATP after 60 mins by time-resolved fluorescence in-vitro kinase assay

[2] = molecular target: Protein kinase C alpha type (Homo sapiens, UniProt P17252)
[3] = Permeability from apical to basolateral side in MDCK2-MDR1 cells at pH 7.4; type: ADME, cell-based, Canis lupus familiaris, MDCK-II; details: dog, MDCK-MDR1, pH 7.4; read-out: permeability
[4] = Unbound intrinsic clearance in human microsomes; type: ADME, Microsome
cells = details: Homo sapiens, T-Blast, 24 h
Description: Inhibition of anti-CD3/anti-CD28 antibody-induced IL2 production in human T-Blast cells after 24 hrs

[5] = Unbound intrinsic clearance in rat microsomes; type: ADME, Microsome
[6] = Oral bioavailability in rat at 3 mg/kg; type: ADME, organism-based; details: in vivo
[7] = AUC in rat at 1 mg/kg, iv or 3 mg/kg, po; type: ADME, organism-based; details: plasma
[8] = Cmax in rat at 1 mg/kg, iv or 3 mg/kg, po; type: ADME, organism-based; details: in vivo
[9] = molecular target: Protein kinase C delta type (Homo sapiens, UniProt Q05655); assay: Inhibition of human recombinant PKCdelta expressed in Sf21 cells using Bio-cdc peptide substrate and ATP after 60 mins by time-resolved fluorescence in-vitro kinase assay
[10] = Half life in rat at 1 mg/kg, iv or 3 mg/kg, po; type: ADME, organism-based; details: in vivo
[11] = molecular target: Protein kinase C beta type (Homo sapiens, UniProt P05771); assay: Inhibition of human recombinant PKCbeta expressed in Sf21 cells using Bio-cdc peptide substrate and ATP after 60 mins by time-resolved fluorescence in-vitro kinase assay
[12] = Plasma clearance in rat at 1 mg/kg, iv or 3 mg/kg, po; type: ADME, organism-based
[13] = molecular target: Protein kinase C gamma type (Homo sapiens, UniProt P05129); assay: Inhibition of human recombinant PKCgamma expressed in Sf21 cells using Bio-cdc peptide substrate and ATP after 60 mins by time-resolved fluorescence in-vitro kinase assay
[14] = Unbound intrinsic clearance in mouse microsomes; type: ADME, Microsome

Sequence of Protein kinase C theta type (Q04759 whole entry): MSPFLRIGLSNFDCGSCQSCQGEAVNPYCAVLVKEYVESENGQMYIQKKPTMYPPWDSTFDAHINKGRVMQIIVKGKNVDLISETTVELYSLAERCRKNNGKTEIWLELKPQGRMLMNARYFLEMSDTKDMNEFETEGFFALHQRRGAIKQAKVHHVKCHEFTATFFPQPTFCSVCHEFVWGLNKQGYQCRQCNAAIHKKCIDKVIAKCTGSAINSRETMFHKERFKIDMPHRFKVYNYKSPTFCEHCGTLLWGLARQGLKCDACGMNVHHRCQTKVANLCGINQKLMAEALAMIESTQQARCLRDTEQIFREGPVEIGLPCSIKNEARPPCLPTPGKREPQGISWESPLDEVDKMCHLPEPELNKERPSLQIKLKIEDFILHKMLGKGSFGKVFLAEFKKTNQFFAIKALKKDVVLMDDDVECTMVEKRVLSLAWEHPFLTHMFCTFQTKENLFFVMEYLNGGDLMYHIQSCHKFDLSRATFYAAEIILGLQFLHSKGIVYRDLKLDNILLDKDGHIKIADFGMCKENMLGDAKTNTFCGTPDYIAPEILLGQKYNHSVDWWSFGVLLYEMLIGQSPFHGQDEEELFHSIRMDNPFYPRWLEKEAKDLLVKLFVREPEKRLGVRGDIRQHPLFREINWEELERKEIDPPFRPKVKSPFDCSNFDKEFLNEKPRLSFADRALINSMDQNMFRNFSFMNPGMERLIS
Sequence of Protein kinase C beta type (P05771 whole entry): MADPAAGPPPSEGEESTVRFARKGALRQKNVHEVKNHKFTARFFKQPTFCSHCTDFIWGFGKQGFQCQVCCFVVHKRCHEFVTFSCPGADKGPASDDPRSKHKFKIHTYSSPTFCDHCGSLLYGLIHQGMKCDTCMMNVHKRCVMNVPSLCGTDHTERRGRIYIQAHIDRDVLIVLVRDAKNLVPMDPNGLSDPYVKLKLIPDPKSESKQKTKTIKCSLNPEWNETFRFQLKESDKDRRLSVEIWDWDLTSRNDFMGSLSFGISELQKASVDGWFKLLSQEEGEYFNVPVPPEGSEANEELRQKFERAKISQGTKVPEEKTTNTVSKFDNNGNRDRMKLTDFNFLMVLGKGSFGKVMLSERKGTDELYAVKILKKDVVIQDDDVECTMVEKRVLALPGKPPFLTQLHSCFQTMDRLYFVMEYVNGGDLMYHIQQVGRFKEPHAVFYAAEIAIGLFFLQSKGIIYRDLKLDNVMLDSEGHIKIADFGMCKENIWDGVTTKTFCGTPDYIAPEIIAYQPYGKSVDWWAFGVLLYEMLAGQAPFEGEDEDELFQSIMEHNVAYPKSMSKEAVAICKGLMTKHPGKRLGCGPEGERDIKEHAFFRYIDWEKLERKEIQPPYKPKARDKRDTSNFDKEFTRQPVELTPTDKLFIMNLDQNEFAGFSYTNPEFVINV
Sequence of Protein kinase C delta type (Q05655 whole entry): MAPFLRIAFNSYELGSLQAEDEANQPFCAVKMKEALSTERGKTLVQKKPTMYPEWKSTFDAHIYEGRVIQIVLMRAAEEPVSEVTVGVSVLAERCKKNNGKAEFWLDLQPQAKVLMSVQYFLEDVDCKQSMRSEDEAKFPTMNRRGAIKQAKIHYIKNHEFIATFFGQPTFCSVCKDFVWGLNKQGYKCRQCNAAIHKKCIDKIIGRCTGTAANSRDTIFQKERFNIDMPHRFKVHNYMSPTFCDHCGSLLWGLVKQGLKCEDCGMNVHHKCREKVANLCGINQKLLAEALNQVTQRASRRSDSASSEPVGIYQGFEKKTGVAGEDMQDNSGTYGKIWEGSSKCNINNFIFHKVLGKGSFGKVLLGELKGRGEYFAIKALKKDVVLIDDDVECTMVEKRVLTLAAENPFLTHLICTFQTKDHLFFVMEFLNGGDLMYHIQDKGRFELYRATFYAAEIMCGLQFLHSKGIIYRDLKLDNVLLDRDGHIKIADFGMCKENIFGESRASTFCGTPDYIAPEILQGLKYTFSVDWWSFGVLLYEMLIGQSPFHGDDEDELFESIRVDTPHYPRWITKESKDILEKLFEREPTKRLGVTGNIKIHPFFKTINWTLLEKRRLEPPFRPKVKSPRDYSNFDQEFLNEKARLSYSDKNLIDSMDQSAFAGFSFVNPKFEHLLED

| Structure (SMILES) | IC50 [1] | IC50 [2] | Papp A→B [3] | CL free [4] | IC50 (cells) | further results |
| --- | --- | --- | --- | --- | --- | --- |
| CCC1C(=O)NN=C2COc3ccc(NC4CNC4)cc3N21 (stereo unspecified) | 1 µM | 5.4 µM |  |  |  |  |
| CN(C)Cc1ccc2c(c1)OCC1=NNC(=O)CN12 | 16 µM |  |  |  |  |  |
| O=C1CN2C(=NN1)COc1ccc(NC3CNC3)cc12 | 1.3 µM | 7.1 µM |  |  |  |  |
| O=C1CN2C(=NN1)COc1ccc(NC3CCC3)cc12 | 38 µM |  |  |  |  |  |
| O=C1CN2C(=NN1)COc1ccc(NC3COC3)cc12 | > 50 µM |  |  |  |  |  |
| O=C1CN2C(=NN1)COc1ccc(NC3CCNC3)cc12 (stereo unspecified) | 3.3 µM |  |  |  |  |  |
| O=C1CN2C(=NN1)COc1ccc(NC3CCCNC3)cc12 (stereo unspecified) | 14 µM |  |  |  |  |  |
| O=C1CN2C(=NN1)COc1ccc(NC3CCNCC3)cc12 | 21 µM |  |  |  |  |  |
| O=C1CN2C(=NN1)COc1ccc(NC3CCCNCC3)cc12 (stereo unspecified) | 8.9 µM |  |  |  |  |  |
| O=C1CN2C(=NN1)COc1ccc(NCC3CNC3)cc12 | 17 µM |  |  |  |  |  |
| O=C1CN2C(=NN1)COc1ccc(NCC3CCNC3)cc12 (stereo unspecified) | 20 µM |  |  |  |  |  |
| O=C1CN2C(=NN1)COc1ccc(NCC3CCNCC3)cc12 | 31 µM |  |  |  |  |  |
| CC(N)CNc1ccc2c(c1)N1CC(=O)NN=C1CO2 (stereo unspecified) | 18 µM |  |  |  |  |  |
| CN(C)CC(=O)Nc1ccc2c(c1)N1CC(=O)NN=C1CO2 | 46 µM |  |  |  |  |  |
| O=C1CN2C(=NN1)COc1ccc(NC(=O)C3CNC3)cc12 | 19 µM |  |  |  |  |  |
| O=C1CN2C(=NN1)COc1ccc(NC(=O)C3CCNC3)cc12 (stereo unspecified) | 46 µM |  |  |  |  |  |

| Structure (SMILES) | IC50 [1] | IC50 [2] | Papp A→B [3] | CL free [4] | IC50 (cells) | further results |
| --- | --- | --- | --- | --- | --- | --- |
| O=C1CN2C(=NN1)COc1ccc(NC(=O)C3CCNCC3)cc12 | 3.5 µM |  |  |  |  |  |
| CN1CCC(C(=O)Nc2ccc3c(c2)N2CC(=O)NN=C2CO3)CC1 | 4.5 µM |  |  |  |  |  |
| O=C1CN2C(=NN1)COc1ccc(NC(=O)CC3CCNCC3)cc12 | > 50 µM |  |  |  |  |  |
| CC1C(=O)NN=C2COc3ccc(NC4CNC4)cc3N21 (stereo unspecified) | 0.23 µM | 9.4 µM | 0.42 ×10⁻⁶ cm/s | 2 L/h/kg | 2700 nM | CL free [5]: 2.9 L/h/kg |
| O=C1NN=C2COc3ccc(NC4CNC4)cc3N2C1C1CC1 (stereo unspecified) | 3.5 µM | > 50 µM |  |  |  |  |
| O=C1NN=C2COc3ccc(NC4CNC4)cc3N2C1c1ccccc1 (stereo unspecified) | > 50 µM | > 50 µM |  |  |  |  |
| Cc1cc2c(cc1NC1CNC1)N1C(=NNC(=O)C1C)CO2 (stereo unspecified) | 0.11 µM | 4.1 µM | 0.31 ×10⁻⁶ cm/s | < 2 L/h/kg | 430 nM | CL free [5]: 3.7 L/h/kg |
| CC1C(=O)NN=C2COc3cc(F)c(NC4CNC4)cc3N21 (stereo unspecified) | 0.1 µM | 6.9 µM | 0.86 ×10⁻⁶ cm/s | < 1.6 L/h/kg | 310 nM | CL free [5]: 3 L/h/kg |
| CC(C)c1cc2c(cc1NC1CNC1)N1C(=NNC(=O)C1C)CO2 (stereo unspecified) | 0.13 µM | 2.2 µM | 0.28 ×10⁻⁶ cm/s | < 2 L/h/kg | 340 nM | CL free [5]: 5.3 L/h/kg |
| CC1C(=O)NN=C2COc3cc(C(F)(F)F)c(NC4CNC4)cc3N21 (stereo unspecified) |  | 2.2 µM | 0.85 ×10⁻⁶ cm/s | 3.4 L/h/kg | 230 nM | CL free [5]: < 4 L/h/kg |
| CC1C(=O)NN=C2COc3cc(C(F)(F)F)c(OC4CNC4)cc3N21 (stereo unspecified) | 0.19 µM | 3 µM |  | 3.1 L/h/kg | 910 nM | CL free [5]: < 4.4 L/h/kg |
| CC1C(=O)NN=C2COc3cc(C(F)(F)F)c(CC4CNC4)cc3N21 (stereo unspecified) | 0.059 µM | 1.6 µM | 0.5 ×10⁻⁶ cm/s | < 2.8 L/h/kg | 390 nM | CL free [5]: 4.9 L/h/kg |
| Cc1cc2c(cc1NC1CNC1)N1C(=NNC(=O)[C@H]1C)CO2 | 0.055 µM | 5.1 µM | 0.35 ×10⁻⁶ cm/s | 2.4 L/h/kg | 270 nM | bioavailability [6]: 9.2%; AUC [7]: 60 ng·h/mL; Cmax [8]: 8.7 ng/mL; IC50 [9]: 750 nM; half-life [10]: 180 min; IC50 [11]: 520 nM; clearance [12]: 81.7 mL/min/kg; IC50 [13]: 23 µM |
| Cc1cc2c(cc1NC1CNC1)N1C(=NNC(=O)[C@@H]1C)CO2 | 0.39 µM | 3 µM | 0.16 ×10⁻⁶ cm/s |  | 4200 nM | CL free [14]: < 4.4 L/h/kg |
| C[C@H]1C(=O)NN=C2COc3cc(-c4ccccc4)c(NC4CNC4)cc3N21 | 0.76 µM | 6.6 µM | 0.23 ×10⁻⁶ cm/s | 6.6 L/h/kg | 2400 nM | CL free [14]: 25 L/h/kg; CL free [5]: < 6.2 L/h/kg |
| C[C@H]1C(=O)NN=C2COc3cc(C(F)(F)F)c(NC4CNC4)cc3N21 |  | 2.9 µM | 0.25 ×10⁻⁶ cm/s | 5.1 L/h/kg | 1000 nM | CL free [14]: < 7.2 L/h/kg; CL free [5]: 7.1 L/h/kg |
